Test results: patent US11167007B2, “FOXM1 modulators and uses thereof” (City of Hope, priority 2016, dated 2021)

Assays:
FOXM1 = test: Immunohistochemistry of FOXM1 in spinal cord; type: in vivo, rat; settings: rats, FIG. 5C
Method: Animals and Drugs. This study was carried out in strict accordance with the recommendations in the Guide for the Care and Use of Laboratory Animals of the National Institutes of Health. All experiments were performed under the IUCAC approval of City of Hope. Animals were purchased from Jackson Laboratory (Bar Harbor, Main). For the pilot pharmacokinetic experiment, nine male Sprague Dawley rats (n=3) were administered 1, 10, or 100 mg/kg intraperitoneal injections thrice per week for four weeks. One hour following the final dose, blood and spinal fluid were collected and analyzed by mass spectrometry. […] Following a treatment period of 7 days, rats were euthanized and organs harvested, weighed and processed for quantitative RT-PCR.
Immunohistochemistry. […] A veterinary pathologist, blinded to the identity of the treatment groups, scored the spinal cord sections based on the intensity of FOXM1 expression, which was typically uniform across the entirety of a section, creating a scale ranging from 0-2 in both white matter and grey matter. […] As a secondary quantification method, Image J was used to determine pixel density of FOXM1 staining. […]
Intact and castrate cohorts were included as controls. […] As a secondary quantification method, Image J was used to determine pixel density of FOXM1 staining. […]

[1] = molecular target: T1, AR with a 24 glutamine tract (normal) (Homo sapiens, UniProt P10275, DUP80-80); test: Luciferase reporter assay in HEK293 cells transfected with ARQ24; type: cell-based; settings: HEK293, AR 24 glutamines, FIG. 2C
T1 construct: expressed in transfected cells; host or cells: HEK293
From the text: Luciferase Reporter Assay. Cells were transfected using Lipofectamine Plus (Invitrogen) with a normalization plasmid (pRL-SV40, Promega) and an androgen responsive plasmid (MMTV-luciferase or PSA-luciferase) as described in Jones et al, ACS Chem Biol, 3(7):412-8 (2008), and, where indicated, with an shRNA plasmid targeting FOXM1 (adapted for mouse FOXM1 sequence targeting) a scrambled control shRNA plasmid, or ARQ24 or ARQ65 plasmids. Christensen et al, PLoS One, 8(1):e54556 (2013). The following day, cells and drugs were distributed to 96-well plates. 24 hours later, luciferase activity was assessed by a dual luciferase assay kit (Promega) on the Tecan plate reader. Samples were run in quadruplicates and a Student's t test was performed to determine significance, where p<0.05 was considered significant.
SBMA is caused by the activity of polyglutamine-expanded AR, and experiments were conducted to investigate the effects of thiostrepton against polyglutamine-expanded AR. AR-negative HEK293 cells were transfected with plasmids encoding AR with a 24 glutamine tract (normal) or with a 65 glutamine tract (disease associated). The polyglutamine-expanded AR was less transcriptionally active than the normal AR, as has been previously documented for such constructs. Kazemi-Esfarjani et al, Hum Mol Genet, 4:523-527 (1995).

T1 sequence (P10275 with tags, fused parts or gaps DUP80-80): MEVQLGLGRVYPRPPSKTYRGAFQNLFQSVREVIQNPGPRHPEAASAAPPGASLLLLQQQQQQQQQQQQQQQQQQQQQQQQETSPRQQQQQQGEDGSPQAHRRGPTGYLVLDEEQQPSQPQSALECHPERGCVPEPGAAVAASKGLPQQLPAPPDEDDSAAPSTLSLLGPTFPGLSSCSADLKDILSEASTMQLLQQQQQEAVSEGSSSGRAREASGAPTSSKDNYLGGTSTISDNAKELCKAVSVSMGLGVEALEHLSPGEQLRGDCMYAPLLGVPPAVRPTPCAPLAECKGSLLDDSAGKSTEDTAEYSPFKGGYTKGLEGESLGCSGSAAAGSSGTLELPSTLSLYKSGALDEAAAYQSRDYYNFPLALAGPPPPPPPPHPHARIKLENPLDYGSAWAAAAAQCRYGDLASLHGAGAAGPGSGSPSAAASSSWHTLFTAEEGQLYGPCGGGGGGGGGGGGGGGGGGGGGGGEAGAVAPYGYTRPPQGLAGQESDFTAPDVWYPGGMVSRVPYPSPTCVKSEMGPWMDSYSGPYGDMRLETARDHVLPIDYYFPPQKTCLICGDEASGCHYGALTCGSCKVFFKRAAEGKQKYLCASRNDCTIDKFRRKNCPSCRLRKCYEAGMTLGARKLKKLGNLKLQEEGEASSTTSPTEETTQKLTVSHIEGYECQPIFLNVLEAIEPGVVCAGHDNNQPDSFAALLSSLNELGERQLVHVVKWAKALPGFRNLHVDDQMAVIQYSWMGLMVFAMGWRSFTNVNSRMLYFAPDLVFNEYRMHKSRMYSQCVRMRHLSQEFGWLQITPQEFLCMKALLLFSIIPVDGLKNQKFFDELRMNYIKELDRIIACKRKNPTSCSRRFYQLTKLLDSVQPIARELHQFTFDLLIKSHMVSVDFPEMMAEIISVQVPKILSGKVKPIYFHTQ

C=C(NC(=O)C(=C)NC(=O)c1csc(C2=N[C@@H]3c4csc(n4)[C@H]4NC(=O)c5csc(n5)[C@H]([C@](C)(O)[C@@H](C)O)NC(=O)[C@H]5CSC(=N5)/C(=C/C)NC(=O)[C@H]([C@@H](C)O)NC(=O)c5csc(n5)[C@]3(CC2)NC(=O)[C@H](C)NC(=O)C(=C)NC(=O)[C@H](C)NC(=O)[C@H]([C@@H](C)CC)N[C@@H]2C=Cc3c([C@H](C)O)cc(nc3[C@H]2O)C(=O)O[C@@H]4C)n1)C(N)=O [thiostrepton]
expression of FOXM1 in the spinal cord, scored by veterinary pathologist (FOXM1; 100 mg/kg per day, four weeks, IP osmotic pumps): significantly reduced
FOXM1 staining intensity, Image J pixel density (FOXM1; spinal cord, relative to untreated): lower intensity
inhibition of non-expanded AR activity (luciferase) [1]: inhibited
